# Measurements taken from PMC2995924 (International journal of high throughput screening, 2010).
# Read-outs that look alike come from different tables or passages of the source.
# How the values were obtained:
# rat S100B [1] = biological target: T1, rat S100B (Rattus norvegicus, UniProt P04631); experiment: Fluorescence polarization competition assay; assay type: binding
# T1 sequence (P04631 1-92): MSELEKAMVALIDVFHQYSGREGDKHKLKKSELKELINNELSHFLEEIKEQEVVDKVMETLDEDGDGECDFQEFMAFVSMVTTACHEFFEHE
# Ca2+-bound S100B = biological target: T2, Ca2+-bound S100B (Rattus norvegicus, UniProt P04631); experiment: NMR 1H-15N HSQC chemical shift perturbation secondary screen; assay type: binding; conditions: for NMR (confirmed to bind S100B via NMR HSQC experiments): 10-fold excess compound versus S100B (100 μM; 10 mM Ca2+)
# T2 sequence (P04631 1-92): T1 sequence (P04631 1-92)
# S100B = biological target: T3, S100B (Rattus norvegicus, UniProt P04631); experiment: Binding monitored by change in the compound's intrinsic fluorescence
# T3 sequence (P04631 1-92): T1 sequence (P04631 1-92)
# TAMRA-TRTK = experiment: fluorescence polarisation
# rat S100B [2] = biological target: T1, rat S100B; experiment: Fluorescence polarization binding assay of labeled peptides; conditions: Ca2+-S100B
Molecule,IC50 (rat S100B [1]) [µM],Kd (rat S100B [1]) [µM],NMR (confirmed to bind S100B via NMR HSQC experiments) (Ca2+-bound S100B),also measured
"CN(C)CCCN1c2ccccc2Sc2ccc(Cl)cc21 [SC0067, chlorpromazine]",2220 ± 1360,697 ± 428,,
"C[CH2][Hg][S]c1ccccc1C(=O)[O-].[Na+] [SC0332, thimerosal]",,,Yes,Kd (rat S100B [1]; calculated from FPCA IC50 with the equation of Nikolovska-Coleska et al): 55.2 ± 5.1 µM
"C[n+]1cc2c3c(ccc2c2ccc4cc5c(cc4c21)OCO5)OCO3 [SC0844, sanguinarine]",35.9 ± 16.4,10.7 ± 4.9,Yes,Kd (S100B): 5.8 µM
O=C(O)c1ccccc1S [thiosalicylic acid],,,,"Inhibition of TAMRA-TRTK binding in the FPCA (rat S100B [1]; even at 2.5 mM compound): did not significantly inhibit; Chemical shift perturbations of the HSQC NMR spectra (Ca2+-bound S100B; 1 mM compound added to 100 μM S100B, fast-exchange regime): significant chemical shift perturbations"
C68/84S mutant rat S100B (natural protein),,,,Kd (TAMRA-TRTK): 2.42 µM
FITC-p53_367–393: FITC-labeled peptide of human p53 residues 367–393,,,,Affinity (KD) of FITC-labeled peptide compared with unlabeled version (rat S100B [2]): significantly higher affinity than the unlabeled version
